Data published in patent US8333966B2, “CD37 immunotherapeutics and uses thereof” (Emergent Product Development Seattle, LLC, priority 2008, dated 2012).
Entries after “also recorded” stand apart in the source; their conditions may differ. Marks after values point to notes of the source that are not given here.

What was measured:
[1] = test system: DOHH2 human tumor xenografts; settings: for Median Survival Time: CAS024 10 μg IV days 0, 4, 8, Bendamustine 10 mg/kg IP days 0, 2, 4, 7, 9, alone or combined; for clinical signs of toxicity: CAS024 10 μg IV, Bendamustine 10 mg/kg IP
Experimental: Establishment of tumor xenografts and sorting into treatment groups. […] The tumor-bearing mice were sorted into five groups with equivalent mean tumor volumes (n=15 per group; 3 cages of 5 mice for each group).
In vivo treatment. Groups of mice were treated with an injection of 0.2 mL of PBS containing 10 μg huIgG (days 0, 4, 8 IV), 10 μg CAS024 (days 0, 4, 8 IV), 10 mg/kg Bendamustine (0, 2, 4, 7, 9 IP), or 10 μg CAS024 (days 0, 4, 8 IV) AND 10 mg/kg Bendamustine (0, 2, 4, 7, 9 IP).
Monitoring and endpoints. Mice were monitored daily by visual inspection. […] Tumor volumes were calculated as described above.

[2] = molecular target: T1, CD37 on BJAB cells (Homo sapiens, UniProt P11049); assay: Competitive binding / cross blocking of FITC-conjugated anti-CD37 reagents on BJAB cells; settings: unlabeled blocking reagent
T1 construct: endogenous in cells; host or cells: BJAB cells
T1 sequence (P11049 1-281): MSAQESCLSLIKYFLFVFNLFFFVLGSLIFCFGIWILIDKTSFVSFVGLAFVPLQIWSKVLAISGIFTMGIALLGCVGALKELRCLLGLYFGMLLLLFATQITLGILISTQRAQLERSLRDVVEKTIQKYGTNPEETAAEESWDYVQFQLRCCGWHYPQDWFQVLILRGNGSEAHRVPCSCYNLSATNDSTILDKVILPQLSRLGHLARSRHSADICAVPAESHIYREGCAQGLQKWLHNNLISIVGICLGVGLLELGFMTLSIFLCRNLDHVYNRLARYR
Experimental: FITC labeled antibody conjugates were titrated from 10 ng/mL to 10 μg/mL in an initial binding study to determine the optimal amount to use in the blocking studies. The level chosen was just below saturating amounts, and was kept constant in the subsequent assays, while levels of blocking antibody were increased over a 10-fold range. Data were plotted as percent of maximal binding versus concentration of blocking antibody, so that higher levels indicate less efficient blocking, while lower levels indicate more efficient blocking activity.
For competitive binding assays, 2.5×10^5 BJAB cells were incubated in 96-well V-bottom plates in staining media (PBS with 2% mouse sera) with the FITC-conjugated anti-CD37 mAbs at 1.25 μg/mL in the presence of unconjugated anti-CD37 MAb at the indicated concentrations (2.5, 1.25, 0.6, or 0.3 μg/ml) or staining media for 45 minutes on ice in the dark. Blocking antibodies and FITC labeled antibody conjugates were added to reactions prior to addition of cells. The cells were then washed […] with PBS and fixed with 1% paraformaldehyde (USB, Cleveland, Ohio). The treated cells were analyzed by flow cytometry using a FACsCalibur instrument and CellQuest software (BD Biosciences, San Jose, Calif.). […]

[3] = SMIP expression in transfected HEK293 cells, day 7 supernatants titered with Protein A sensor; settings: supernatants day 7
Excerpt: CAS-024 and other CD37-specific binding SMIP molecules were produced by recombinant DNA technology and transfected into HEK293 cells for 7 days. Cell culture supernatants were harvested on day 7 and titered using Octec Q Protein A sensor.

[4] = test system: human tumor (DOHH2) xenograft; assay: Single agent efficacy in established DOHH2 xenograft model in SCID mice; type: in vivo; settings: for Death (other than for Tumor Size Sacrifice) / Median Survival Time: 200 μg IP days 0, 4, 8, cumulative 600 μg; for mean tumor volume compared with human IgG treated group: day 4 through day 11
Experimental: Mice were monitored daily by visual inspection. […] Tumor volumes were calculated as described above. Tumor volumes on the last day that all mice were alive in each group were also expressed in terms of tumor volumes relative to day 0, using the formula: Relative tumor volume on day of interest=(volume on day of interest−volume on day 0)volume on day 0

[5] = test system: human tumor (DOHH2) xenograft; assay: Dose response in established subcutaneous DOHH2 xenograft model in SCID mice; type: in vivo
Experimental: Mice were monitored daily by visual inspection. […] Tumor volumes were calculated as described above.

[6] = molecular target: T2, CD37 on Ramos cells (Homo sapiens, UniProt P11049); assay: FMAT competition assay against FMAT Blue labeled CAS-006 for binding to Ramos cells
T2 construct: endogenous in cells; host or cells: Ramos cells
T2 sequence (P11049 1-281): T1 sequence (P11049 1-281)
Excerpt: A competition assay was used to compare the binding affinity of different anti-CD37 specific small modular immunopharmaceutical (SMIP) molecules to CD-37 found on Ramos cells (a B-lymphoblastoid cell line derived from a Burkitt lymphoma). An SEC purified chimeric anti-CD37 SMIP molecule (CAS-006, SEQ ID NO:247) was labeled with the FMAT Blue® fluorescence dye (Applied Biosystems) and used as the standard to compete with purified unlabeled chimeric anti-CD37 SMIP molecule (positive control) and purified unlabeled humanized anti-CD37 SMIP test molecules. […] The plates were incubated at room temperature for 30 min and read on an 8200 Cellular Detection System (Applied Biosystems) gated for middle cell size and low signal.
A competition assay as described in Example 4 was used to compare the binding affinity of different mouse-human hybrid anti-CD37 SMIP molecules compared to CAS-024 binding to Ramos cells. An SEC purified chimeric anti-CD37 SMIP molecule (CAS-006, SEQ ID NO:247) was labeled with the FMAT Blue® fluorescence dye (Applied Biosystems) and used as the standard to compete with purified unlabeled chimeric anti-CD37 SMIP molecule (CAS-006, positive control) and purified unlabeled humanized anti-CD37 SMIP test molecules—CAS-002 (SEQ ID NO:48), CAS-003 (SEQ ID NO:52), CAS-014 (SEQ ID NO:251), CAS-017 (SEQ ID NO:252), and CAS-024 (SEQ ID NO:253).

[7] = SMIP expression in transfected CHO cells, supernatants titered with Protein A sensor; design: species or system Chinese Hamster Ovary (CHO); settings: shake flasks, culture supernatants
Experimental: CAS-024 and other CD37-specific binding SMIP molecules were cloned into a Chinese Hamster Ovary (CHO) mammalian cell expression system. Transfected CHO cells that produced the SMIP molecules were cultured in shake flasks and harvested cell culture supernatants were titered using Octec Q Protein A sensor.

[8] = 3 μg IP days 0, 4, 8, cumulative 9 μg
[9] = 10 μg IP days 0, 4, 8, cumulative 30 μg
[10] = 30 μg IP days 0, 4, 8, cumulative 90 μg
[11] = 100 μg IP days 0, 4, 8, cumulative 300 μg

Compound: Cn1c(CCCC(=O)O)nc2cc(N(CCCl)CCCl)ccc21 [Bendamustine, 4-[5-[Bis(2-chloroethyl)amino]-1-methylbenzimidazol-2-yl]butanoic acid, reference compound]
- Median Survival Time [1]: 17 days
- clinical signs of toxicity [1]: scruffy coats and diarrhea

Compound: CAS-006: chimeric anti-CD37 SMIP protein (mVLmVH) with variable regions from mouse mAb G28-1, SEQ ID NO:247
- blocking activity (inhibition of binding of FITC-conjugated anti-CD37) [2]: highest level of blocking activity
- Protein Titer [3]: 9.3 µg/mL

Compound: G28-1 VH (M99F, Y102S)-VL (T25A) scFv (SSC-P) H WCH2 WCH3 [CAS-024]
- Death (other than for Tumor Size Sacrifice) [4]: 1/15^f
- Median Survival Time [4]: Undefined^d, e
- mean tumor volume compared with human IgG treated group [4]: significantly lower
- Death (Not Due to Large Tumor Volume) [5, 8]: 0/14
- Median Survival Time [5, 8]: 19 days
- Death (Not Due to Large Tumor Volume) [5, 9]: 0/14
- Median Survival Time [5, 9]: 28 days
- Death (Not Due to Large Tumor Volume) [5, 10]: 0/14
- Median Survival Time [5, 10]: 35 days
- Death (Not Due to Large Tumor Volume) [5, 11]: 1/14^h
- Median Survival Time [5, 11]: Undefined
- Death (Not Due to Large Tumor Volume) ([5]; 200 μg IP days 0, 4, 8, cumulative 600 μg): 0/14
- effect on the growth of DOHH2 tumors ([5]; 3 to 200 μg IP days 0, 4, 8): dose-dependent inhibitory effect
- greater affinity for CD37 than humanized VLVH SMIP molecules with 16 amino acid linker ([6]; Ramos cells): ≤ 4 fold
- affinity for CD37 compared with parent chimeric CAS-006 ([6]; competition with labeled CAS-006, Ramos cells): substantially the same affinity; also recorded: same binding affinity
- Protein Titer [3]: 12.7 µg/mL
- Median Survival Time [1]: 17^b Days
- clinical signs of toxicity [1]: No clinical signs of toxicity
- Protein Titer Range [7]: 500 to 650 µg/mL

Compound: Rituxan: anti-CD20 treatment used as single agent comparator [reference compound]
- Death (other than for Tumor Size Sacrifice) [4]: 0/15
- Median Survival Time [4]: 43 days
- mean tumor volume compared with human IgG treated group [4]: significantly lower
